{"source": "patent US20110111040A1", "about": "“POLYELECTROLYTE-ENCAPSULATED GOLD NANOPARTICLES CAPABLE OF CROSSING BLOOD-BRAIN BARRIER” (priority 2008, published 2011)", "key": {"[1]": {"test": "Electrophoretic mobility (ue) measurements as a function of pH", "type": "physicochemical", "experimental": "Electrophoretic mobility (ue) measurements were performed in a Malvern Zetasizer 2000 apparatus (Malvern Instruments, England) at room temperature. Measurements were carried out 24 hours after the preparation of the suspensions, and the pH was readjusted immediately before the mobility was measured. In FIG. 1. electrophoretic mobility as a function of the pH of the gold nanoparticles, creatine, gold-creatine composite particles, and albumin are shown. As observed, the gold nanoparticles present a negative electrophoretic mobility (ue) over the whole range of pH, characteristic of the citrate molecules adsorbed on them, becoming more negative with pH increase. […] On the contrary, albumin molecules present an isoelectric point between pH 4.5-5, becoming more negative with pH increase."}, "[2]": {"settings": "albumin alone; stated without own test; cited from earlier work"}}, "data": [{"molecule": "CN(CC(=O)O)C(=N)N", "note": "[Creatine]", "values": [{"measurement": "electrophoretic mobility (ue)", "setting": "[1]; acidic conditions", "value": "very close to zero"}, {"measurement": "electrophoretic mobility (ue)", "setting": "[1]; whole range of pH", "value": "negative"}]}, {"molecule": "albumin", "values": [{"measurement": "crossing of the blood brain barrier", "setting": "[2]", "value": "not able to cross the blood brain barrier"}, {"measurement": "isoelectric point", "setting": "[1]", "value": "4.5-5 pH"}]}]}
